# Patent US20240009165A1, “GRISEOFULVIN AS AN ADJUNCT DRUG FOR THE TREATMENT OF CEREBRAL AND SEVERE MALARIA” (priority 2020, published 2024)
# What was measured:
# P. berghei ANKA [1] = assay: Evans blue extravasation in the brain (BBB integrity); format: in vivo; details: griseofulvin-treated WT-infected mice; brain on day 8 post-infection
# Excerpt: (§1) Routine propagation of P. berghei in mice and CM experiments. P. berghei ANKA WT and KO parasites were propagated in C57BL/6 male/female mice of 7-8 weeks old. Peripheral blood parasitemia was monitored by performing light microscopy for Giemsa stained thin blood smears prepared from tail vein blood. When the blood parasitemia was around 10%, 10^5 P. berghei ANKA WT or 10^5/10^7 ALAS/FC KO parasites were collected and injected intraperitoneally in 7-8 weeks old C57BL/6 male/female naïve mice to initiate CM experiments. Growth curve analysis was carried out by monitoring the blood parasitemia. The development and progression of ECM were monitored by examining RMCBS for neurological symptoms. To assess BBB integrity, Evans blue uptake assays were carried out by injecting 200 μl of 2% Evans blue in PBS intravenously and examining the extravasation of dye after one hour in the brain of the infected mice that were transcardially perfused with PBS. The extent of BBB damage was quantified by incubating the brain samples in formamide at 37° C. for 48 h, extracting the Evans blue and measuring the absorbance at 620 nm.
# Plasmodium falciparum = details: humans infected with Plasmodium falciparum; reference (34); cited from earlier work
# hemozoin (Hz) formation = assay: Hemozoin and free heme estimation in parasites; format: in vivo, P. berghei
# Procedure: Heme, Hz, hemoglobin and hemopexin estimations. Free heme levels in the plasma samples of WT- and KO-infected mice were quantified using Hemin colorimetric assays. The assay is specific for free heme and it utilizes peroxidase activity of hemin to facilitate the conversion of a colorless probe to a strongly colored compound with absorbance at 570 nm. The quantification of free heme in the parasite lysates was carried out by resuspending the parasite pellets in 5 volumes of hypotonic lysis buffer containing 5 mM Tris pH 7.5 with protease inhibitors and incubating them in ice for 30 min. The lysates were then centrifuged at 20,000 g for 20 min, 4° C., and the supernatants obtained were used for free heme estimation as mentioned above for the plasma samples. The Hz content of the WT and KO parasite pellets was estimated as described. The parasite pellet was resuspended in 1 ml of 100 mM sodium acetate buffer, pH 5.0 and left at 37° C. for overnight, followed by centrifugation at 10,000 g for 5 min. The resultant pellet was resuspended in 100 mM Tris buffer pH 8.0 containing 2.5% SDS and incubated at 37° C. for 30 min, followed by centrifugation at 10,000 g for 5 min. The pellet obtained was washed once with 100 mM alkaline bicarbonate pH 9.2 and then with distilled water. The final Hz pellet was dissolved in 100 mM NaOH containing 2.5% SDS, and the absorbance was measured at 405 nm. The supernatants of sodium acetate and Tris SDS steps were collected to estimate the protein content by Micro BCA protein assay kit and heme content of the Hz was expressed per mg of total protein. […] After repeating this step thrice, the pellets were solubilized in 100 mM NaOH containing 2% SDS and 3 mM EDTA, and the absorbance was measured at 405 nm. In parallel, the parasite load in the organs was examined by quantitative PCR (qPCR) analysis carried out with Pb18SrRNA primers for the total RNA isolated from 30 mg tissue of the organs. […] Hemoglobin and hemopexin levels in the plasma samples of WT- and KO-infected mice were measured by ELISA.
# parasite heme synthesis = assay: 14C-ALA labelling of free heme in in vivo-treated pRBCs; format: cell-based, P. berghei; details: in vivo-treated pRBCs incubated in vitro with 14C-ALA for 9 h; vs untreated WT parasites
# Excerpt: The present invention evaluated the potential of griseofulvin in preventing CM and treated WT-infected C57BL/6 mice from day 4 when the blood parasitemia was around 2%, and examined for CM pathogenesis. […] While ˜80% of the control mice succumbed to CM within day 10, more than 80% of the griseofulvin-treated mice were protected from CM. […] While the anemia mortality in CM-escaped control mice occurred within day 17, more than 80% of the griseofulvin-treated mice could survive beyond day 20 with almost 50% of them surviving even beyond day 24. […]
# Labelling studies with ^14C-ALA. […] For ^14C-ALA labelling, blood samples were collected from griseofulvin treated and control WT-infected mice around 16:00 h and the labelling was carried out for 9 h at a radioactivity of […]. […] The upper phase was separated, dried under nitrogen stream, dissolved in methanol and analysed by TLC on silica gel using the mobile phase 2,6-lutidine and water (5:3 v/v) in ammonia atmosphere. The intensity of radiolabelling was scanned using Biomolecular Imager by exposing the TLC sheets to phosphorimager screen and the radioactive counts were measured.
# P. berghei ANKA [2] = assay: Cerebral malaria (CM) protection and mortality of PbWT-infected mice treated with griseofulvin; format: in vivo
# Excerpt: The present invention evaluated the potential of griseofulvin in preventing CM and treated WT-infected C57BL/6 mice from day 4 when the blood parasitemia was around 2%, and examined for CM pathogenesis. […] While ˜80% of the control mice succumbed to CM within day 10, more than 80% of the griseofulvin-treated mice were protected from CM. […] While the anemia mortality in CM-escaped control mice occurred within day 17, more than 80% of the griseofulvin-treated mice could survive beyond day 20 with almost 50% of them surviving even beyond day 24. […] To confirm that the CM protection is due to inhibition of parasite heme synthesis, the present invention analyzed heme synthesis in griseofulvin-treated and -untreated WT parasites by incubating the in vivo-treated pRBCs in vitro with ^14C-ALA (committed precursor of heme synthesis) for 9 h. There was around 60% decrease in the ^14C-labelling of free heme in griseofulvin-treated parasites. […] As observed for the KO parasites, the total Hz content in the griseofulvin-treated parasites was around 50-60% less when compared with untreated parasites and there was also close to 60% decrease in the free heme levels.
# as §1
# Griseofulvin treatment in mice. Griseofulvin was prepared by dissolving 1 or 2 mg in 40 μl DMSO and then making up the volume to 200 μl with 10% solutol HS 15 in saline. The mixture was vortexed thoroughly for 10 min to form an emulsion and injected intraperitoneally into the mice. All single dose injections were carried out at 06:00 h and double dose injections were carried out at 06:00 h and 18:00 h for the respective days. […]
# P. berghei ANKA [3] = assay: Histochemical and immunofluorescence analyses of brain sections; format: in vivo; details: griseofulvin-treated WT-infected mice
# Procedure: Histological and immunofluorescence analyses of cerebral pathology in the brain of infected mice. For H&E staining to assess vascular blockage, hemorrhages and demyelination, brain samples were fixed with formalin for 72 hours at room temperature. After dehydrating with ethanol and treating with xylene, paraffin embedded blocks were made and sections of 7 μm thickness were prepared using rotary microtome. The sections were then processed and stained with H&E using standard protocols. Immunohistochemical analysis of IgG extravasation in the brain sections was carried out as described. Brain sections of 30 μm thickness was antigen retrieved by treating them at 95° C. for 30 min in sodium citrate buffer pH 6.0, followed by blocking with 3% H2O2 at room temperature for 30 min to prevent endogenous peroxidase activity. The sections were then incubated with HRP-conjugated goat anti-mouse IgG at 1:250 dilution in PBS containing 0.3% Triton X-100 and 0.1% BSA, followed by developing with diaminobenzidine tetrahydrochloride and counterstaining with hematoxilin. Immunofluorescence analysis of brain sections for parasite sequestration was carried out by fixing the brain samples in 4% paraformaldehyde in PBS containing 20% sucrose for 24 h at 4° C. and cryoprotecting them for 48 h in PBS containing 20% sucrose. Coronal sections of 30 μm thickness was prepared using cryostat microtome and antigen retrieval was carried out by treating them at 95° C. for 30 min in sodium citrate buffer pH 9.0. After blocking with 1% BSA, the sections were incubated with anti-CD31 mouse monoclonal antibody conjugated with Alexa Fluor 594 and anti-PbGAPDH rabbit polyclonal serum or anti-mouse CD3 rat monoclonal antibody for 16 h at 4° C. The sections were then treated with FITC-conjugated donkey anti-rabbit IgG or FITC-conjugated goat anti-rat IgG (1:200 dilution), followed by 4′,6-diamidino-2-phenylindole (DAPI) staining. Anti-mouse β-APP rabbit polyclonal antibody was used in 1:200 dilution.
# P. berghei ANKA [4] = assay: Plasma heme, hemopexin and hemoglobin estimation in infected mice; format: in vivo; details: griseofulvin-treated WT-infected mice
# Procedure: Heme, Hz, hemoglobin and hemopexin estimations. Free heme levels in the plasma samples of WT- and KO-infected mice were quantified using Hemin colorimetric assays. The assay is specific for free heme and it utilizes peroxidase activity of hemin to facilitate the conversion of a colorless probe to a strongly colored compound with absorbance at 570 nm. The quantification of free heme in the parasite lysates was carried out by resuspending the parasite pellets in 5 volumes of hypotonic lysis buffer containing 5 mM Tris pH 7.5 with protease inhibitors and incubating them in ice for 30 min. The lysates were then centrifuged at 20,000 g for 20 min, 4° C., and the supernatants obtained were used for free heme estimation as mentioned above for the plasma samples. The Hz content of the WT and KO parasite pellets was estimated as described. The parasite pellet was resuspended in 1 ml of 100 mM sodium acetate buffer, pH 5.0 and left at 37° C. for overnight, followed by centrifugation at 10,000 g for 5 min. The resultant pellet was resuspended in 100 mM Tris buffer pH 8.0 containing 2.5% SDS and incubated at 37° C. for 30 min, followed by centrifugation at 10,000 g for 5 min. The pellet obtained was washed once with 100 mM alkaline bicarbonate pH 9.2 and then with distilled water. The final Hz pellet was dissolved in 100 mM NaOH containing 2.5% SDS, and the absorbance was measured at 405 nm. The supernatants of sodium acetate and Tris SDS steps were collected to estimate the protein content by Micro BCA protein assay kit and heme content of the Hz was expressed per mg of total protein. To estimate the Hz content in the spleen and liver of the WT- and KO-infected mice, 50 mg tissue of the respective organs was homogenized in 50 mM Tris pH 8.0 containing 50 mM NaCl, 5 mM CaCl2 and 1% Triton X-100, and incubated for 12 h at 37° C. in the presence of proteinase K. The lysates were sonicated and centrifuged at 15,000 g for 30 min. The pellets obtained were resuspended with 100 mM sodium bicarbonate containing 2% SDS and sonicated, followed by centrifugation at 15,000 g for 15 min. After repeating this step thrice, the pellets were solubilized in 100 mM NaOH containing 2% SDS and 3 mM EDTA, and the absorbance was measured at 405 nm. In parallel, the parasite load in the organs was examined by quantitative PCR (qPCR) analysis carried out with Pb18SrRNA primers for the total RNA isolated from 30 mg tissue of the organs. After normalizing with respect to the parasite load, the total heme content of the Hz isolated was expressed per mg weight of the organ. Hemoglobin and hemopexin levels in the plasma samples of WT- and KO-infected mice were measured by ELISA.
# P. berghei ANKA [5] = assay: Growth curve analysis (peripheral blood parasitemia) in treated mice; format: in vivo; details: 2 mg dose per day on day 4, 5, 6, 7 and 8; C57BL/6 mice
# Excerpt: The present invention evaluated the potential of griseofulvin in preventing CM and treated WT-infected C57BL/6 mice from day 4 when the blood parasitemia was around 2%, and examined for CM pathogenesis. […] While ˜80% of the control mice succumbed to CM within day 10, more than 80% of the griseofulvin-treated mice were protected from CM. […] While the anemia mortality in CM-escaped control mice occurred within day 17, more than 80% of the griseofulvin-treated mice could survive beyond day 20 with almost 50% of them surviving even beyond day 24. […] To confirm that the CM protection is due to inhibition of parasite heme synthesis, the present invention analyzed heme synthesis in griseofulvin-treated and -untreated WT parasites by incubating the in vivo-treated pRBCs in vitro with ^14C-ALA (committed precursor of heme synthesis) for 9 h. […]
# Routine propagation of P. berghei in mice and CM experiments. […] Peripheral blood parasitemia was monitored by performing light microscopy for Giemsa stained thin blood smears prepared from tail vein blood. […] The development and progression of ECM were monitored by examining RMCBS for neurological symptoms. […] The extent of BBB damage was quantified by incubating the brain samples in formamide at 37° C. for 48 h, extracting the Evans blue and measuring the absorbance at 620 nm. […]
# P. berghei ANKA [6] = assay: α,β-arteether alone or with griseofulvin in preventing CM in mice; format: in vivo
# Procedure: Griseofulvin treatment in mice. Griseofulvin was prepared by dissolving 1 or 2 mg in 40 μl DMSO and then making up the volume to 200 μl with 10% solutol HS 15 in saline. The mixture was vortexed thoroughly for 10 min to form an emulsion and injected intraperitoneally into the mice. All single dose injections were carried out at 06:00 h and double dose injections were carried out at 06:00 h and 18:00 h for the respective days. Control mice were injected with the solvent. α,β-arteether (E MAL) was administered intramuscularly. For experiments involving the combination of α,β-arteether and griseofulvin, α,β-arteether was administered intramuscularly at 06:00 h on day 6, followed by two doses of griseofulvin at 24 h interval (at 09:00 h on day 6 and 7).
# [7] = griseofulvin-treated WT parasites vs untreated
structure (smiles),measurement,setting,value
COC1=CC(=O)C[C@@H](C)[C@]12Oc1c(Cl)c(OC)cc(OC)c1C2=O [griseofulvin],Evans blue extravasation in the brain,P. berghei ANKA [1],less Evans blue extravasation
same,in vivo parasite growth in humans,Plasmodium falciparum,did not inhibit the in vivo parasite growth
same,Hz content by light microscopy,hemozoin (Hz) formation; Giemsa-stained peripheral smears and paraformaldehyde-fixed pRBCs of treated mice,less Hz content
same,decrease in free heme levels in parasites,hemozoin (Hz) formation; [7],around 60%
same,"total Hz content, less than untreated parasites",hemozoin (Hz) formation; [7],50-60%
same,decrease in 14C-labelling of free heme,parasite heme synthesis,around 60%
same,mice protected from CM,"P. berghei ANKA [2]; WT-infected C57BL/6 mice, single dose of 2 mg/day i.p. from day 4 until day 8, ~80% of control mice succumbed to CM within day 10",more than 80%
same,delay in mortality due to anemia,P. berghei ANKA [2]; griseofulvin-treated WT-infected C57BL/6 mice vs CM-escaped control mice,significant delay
same,mice surviving beyond day 24,P. berghei ANKA [2]; griseofulvin-treated WT-infected mice,around 50%
same,mice surviving beyond day 20,"P. berghei ANKA [2]; griseofulvin-treated WT-infected mice, anemia mortality in CM-escaped control mice within day 17",more than 80%
same,intracerebral hemorrhages in brain sections,P. berghei ANKA [3]; H&E,absence of intracerebral hemorrhages
same,accumulation of CD3+ T cells in the cerebral vasculature,P. berghei ANKA [3]; immunofluorescence,lack of accumulation
same,accumulation of parasites in the cerebral vasculature,P. berghei ANKA [3]; immunofluorescence,lack of accumulation
same,plasma heme/hemopexin ratio,P. berghei ANKA [4],comparable to that of the KO-infected mice
same,plasma level of Hb,P. berghei ANKA [4],comparable to that of the KO-infected mice
same,plasma level of heme,P. berghei ANKA [4],comparable to that of the KO-infected mice
same,plasma level of hemopexin,P. berghei ANKA [4],comparable to that of the KO-infected mice
same,growth curves of WT parasites in treated and untreated mice,P. berghei ANKA [5],very much comparable
"CCO[C@H]1O[C@@H]2O[C@@]3(C)CC[C@H]4[C@H](C)CC[C@@H]([C@H]1C)[C@@]24OO3 [α,β-arteether]",peripheral parasitemia in blood smears,P. berghei ANKA [6]; single intramuscular dose of 0.25 mg/mouse on day 6,clearance
same,WT-infected mice developing CM,"P. berghei ANKA [6]; single intramuscular dose of 0.25 mg/mouse on day 6, parasitemia around 10%",60-70%
